From patent US8362051B2, “Mold-resistant wallboard” (Rohm and Haas Company, priority 2007, dated 2013)

Key:
Type in all cases: cell-based
mold [1] = assay: TAPPI T-487 test on surface-treated paper; set-up: key to TAPPI T-487 rating Week 1 / TAPPI T-487 rating Week 2 / TAPPI T-487 rating Week 3: 100% mold coverage; 1: 90% mold coverage; 2: 80% mold coverage; 3: 70% mold coverage; 4: 60% mold coverage; 50% mold coverage; 6: 40% mold coverage; 7: 30% mold coverage; 8: 20% mold coverage; 9: 10% mold coverage; 10: no mold growth; conditions: surface treatment; for TAPPI T-487 rating Week 1 / TAPPI T-487 rating Week 2 / TAPPI T-487 rating Week 3: average of three sheets
Method: The papers of this example were prepared via surface treatment. The values in Table 3 below represent the average concentration of active biocide in the paper and the average […]-487 test rating based on three paper sheets.

mold [2] = assay: ASTM 3273 fungal growth test on paper sheets, biocide added to pulp slurry; set-up: key to ASTM 3273 rating Week 1: 0: 100% mold coverage; 1: 90%; 2: 80%; 3: 70%; 4: 60%; 5: 50%; 6: 40%; 7: 30%; 8: 20%; 9: 10%; 10: no mold growth coverage; 8: 20% mold coverage; 9: 10% mold coverage; 10: no mold growth; key to ASTM 3273 rating Week 2 / ASTM 3273 rating Week 3 / ASTM 3273 rating Week 4: 100% mold coverage; 1: 90% mold coverage; 2: 80% mold coverage; 3: 70% mold coverage; 4: 60% mold coverage; 50% mold coverage; 6: 40% mold coverage; 7: 30% mold coverage; 8: 20% mold coverage; 9: 10% mold coverage; 10: no mold growth; conditions: average of three sheets
Method: (§1) The biocides can be evaluated in the following examples by adding to a 0.4 wt % pulp slurry in water (100% recycle) typically used for gypsum wallboard facing paper. The slurry is filtered through a screen to drain the water from the stock and the resulting paper mat is blotted, couched, and dried to form a paper sheet with a basis weight of approximately 40 lb/1000 ft2. Three sheets per condition are prepared. High Performance Liquid Chromatography (HPLC) is used to determine the amount of biocide present in each sheet. The paper sheets are evaluated for fungal growth via ASTM 3273, currently the industry standard for mold-resistant wallboard, as well as the standard TAPPI T-487 fungal efficacy test.
(§2) The values in Tables 1 and 2 below represent data from samples made substantially according to the preceding protocol. The average concentration of active biocide in the paper and the average test rating based on three paper sheets are shown. Based on tables 1 and 2, approximately 4-4.5 times more DIMTS active was needed in the paper sheet than OIT before no mold growth was observed throughout the entire testing period.
(§3) For ASTM 3273, a 4-week test, the following rating scale applies: • 0—100% mold coverage • 1—90% mold coverage • 2—80% mold coverage • 3—70% mold coverage • 4—60% mold coverage • 5—50% mold coverage • 6—40% mold coverage • 7—30% mold coverage • 8—20% mold coverage • 9—10% mold coverage • 10—no mold growth For TAPPI T-487, a 3-week test, the following rating scale applies: • 0—no mold growth • 1—25% mold coverage • 2—50% mold coverage • 3—75% mold coverage • 4—100% mold coverage

mold [3] = assay: TAPPI T-487 fungal efficacy test on paper sheets, biocide added to pulp slurry; set-up: key: coverage; 8: 20% mold coverage; 9: 10% mold coverage; 10: no mold growth; conditions: average of three sheets
Method: as §1, §2, §3

Compound: CCCCNC(=O)OCC#CI [IPBC, 3-iodo-2-propynyl-butylcarbamate]
- TAPPI T-487 rating Week 1 (mold [1]; 70 ppm in paper): 0
- TAPPI T-487 rating Week 2 (mold [1]; 70 ppm in paper): 0
- TAPPI T-487 rating Week 3 (mold [1]; 70 ppm in paper): 0
- TAPPI T-487 rating Week 1 (mold [1]; 688 ppm in paper): 0
- TAPPI T-487 rating Week 2 (mold [1]; 688 ppm in paper): 0
- TAPPI T-487 rating Week 3 (mold [1]; 688 ppm in paper): 0
- TAPPI T-487 rating Week 1 (mold [1]; 6768 ppm in paper): 0
- TAPPI T-487 rating Week 2 (mold [1]; 6768 ppm in paper): 0
- TAPPI T-487 rating Week 3 (mold [1]; 6768 ppm in paper): 0
- effectiveness at controlling mold growth versus comparators (mold [1]; based on Table 3): more effective at controlling mold growth at lower dosages than DIMTS, ZPT, and TBZ

Compound: CCCCCCCCn1sccc1=O [OIT, octylisothiazolinone]
- ASTM 3273 rating Week 1 (mold [2]; 113 ppm in paper sheet): 10
- ASTM 3273 rating Week 2 (mold [2]; 113 ppm in paper sheet): 10
- ASTM 3273 rating Week 3 (mold [2]; 113 ppm in paper sheet): 10
- ASTM 3273 rating Week 4 (mold [2]; 113 ppm in paper sheet): 10
- ASTM 3273 rating Week 1 (mold [2]; 174 ppm in paper sheet): 10
- ASTM 3273 rating Week 2 (mold [2]; 174 ppm in paper sheet): 10
- ASTM 3273 rating Week 3 (mold [2]; 174 ppm in paper sheet): 10
- ASTM 3273 rating Week 4 (mold [2]; 174 ppm in paper sheet): 10
- ASTM 3273 rating Week 1 (mold [2]; 283 ppm in paper sheet): 10
- ASTM 3273 rating Week 2 (mold [2]; 283 ppm in paper sheet): 10
- ASTM 3273 rating Week 3 (mold [2]; 283 ppm in paper sheet): 10
- ASTM 3273 rating Week 4 (mold [2]; 283 ppm in paper sheet): 10
- TAPPI T-487 rating Week 1 (mold [3]; 181 ppm in paper sheet): 0
- TAPPI T-487 rating Week 2 (mold [3]; 181 ppm in paper sheet): 0
- TAPPI T-487 rating Week 3 (mold [3]; 181 ppm in paper sheet): 0
- TAPPI T-487 rating Week 1 (mold [3]; 309 ppm in paper sheet): 0
- TAPPI T-487 rating Week 2 (mold [3]; 309 ppm in paper sheet): 0
- TAPPI T-487 rating Week 3 (mold [3]; 309 ppm in paper sheet): 0
- TAPPI T-487 rating Week 1 (mold [3]; 492 ppm in paper sheet): 0
- TAPPI T-487 rating Week 2 (mold [3]; 492 ppm in paper sheet): 0
- TAPPI T-487 rating Week 3 (mold [3]; 492 ppm in paper sheet): 0

Compound: c1ccc2[nH]c(-c3cscn3)nc2c1 [TBZ, Thiabendazole]
- TAPPI T-487 rating Week 1 (mold [1]; 31 ppm in paper): 4 (100% mold coverage)
- TAPPI T-487 rating Week 2 (mold [1]; 31 ppm in paper): 4 (100% mold coverage)
- TAPPI T-487 rating Week 3 (mold [1]; 31 ppm in paper): 4 (100% mold coverage)
- TAPPI T-487 rating Week 1 (mold [1]; 229 ppm in paper): 2 (50% mold coverage)
- TAPPI T-487 rating Week 2 (mold [1]; 229 ppm in paper): 4 (100% mold coverage)
- TAPPI T-487 rating Week 3 (mold [1]; 229 ppm in paper): 4 (100% mold coverage)
- TAPPI T-487 rating Week 1 (mold [1]; 4107 ppm in paper): 0
- TAPPI T-487 rating Week 2 (mold [1]; 4107 ppm in paper): 0
- TAPPI T-487 rating Week 3 (mold [1]; 4107 ppm in paper): 0

Compound: zinc pyrithione [ZPT]
- TAPPI T-487 rating Week 1 (mold [1]; 60 ppm in paper): 4 (100% mold coverage)
- TAPPI T-487 rating Week 2 (mold [1]; 60 ppm in paper): 4 (100% mold coverage)
- TAPPI T-487 rating Week 3 (mold [1]; 60 ppm in paper): 4 (100% mold coverage)
- TAPPI T-487 rating Week 1 (mold [1]; 486 ppm in paper): 1 (25% mold coverage)
- TAPPI T-487 rating Week 2 (mold [1]; 486 ppm in paper): 4 (100% mold coverage)
- TAPPI T-487 rating Week 3 (mold [1]; 486 ppm in paper): 4 (100% mold coverage)
- TAPPI T-487 rating Week 1 (mold [1]; 5408 ppm in paper): 0
- TAPPI T-487 rating Week 2 (mold [1]; 5408 ppm in paper): 0
- TAPPI T-487 rating Week 3 (mold [1]; 5408 ppm in paper): 0
